Strand notation (5' to 3'): a small letter for the sugar, then the base; units joined by * are phosphorothioate-linked, units joined directly phosphodiester-linked; [ ] holds rarer units or linkages, { } end groups; capitals alone tell only the bases. e = 2'-O-(2-methoxyethyl) (MOE); [5mC] = 5-methylcytosine; d = 2'-deoxy (DNA)
Tested on: GCGR mRNA
Assay: GCGR mRNA levels in liver and estimated ED50, C57/BL6 mice, single i.p. dose of MOE and methyleneoxy BNA gapmers (Tables 44, 45)
Assay type: in vivo, mouse
Settings: liver
Protocol: Eight-week old male C57/BL6 mice (Jackson Laboratory, Bar Harbor, Me.) were administered a single dose of GCGR antisense compound by intraperitonel (i.p.) injection at a concentration of 10, 3.2, 1, and 0.32 μmol·kg. Each dose group consisted of four animals. Shown in Table 43 are the sequences, motifs and conjugates of the GCGR antisense compounds used in this study. Bolded residues indicate 2′-O-methoxyethyl (2′-MOE) modifications and the italicized residues indicate methyleneoxy (4′-CH2—O-2′) BNA modifications. All antisense compounds comprise phosphorothioate internucleoside linkages throughout and each cytosine is replaced with 5-methylcytosine. GCGR antisense compounds target published GCGR nucleic acids, including Genbank Accession No. BC031885.1 (SEQ ID NO: 7).
To determine whether the phenotypic changes shown above correlated with a decrease in GCGR mRNA, treated animals were evaluated for levels of target mRNA in liver by RT, real time PCR according to methods described herein. Table 44 show results from direct comparisons of the antisense compounds targeting GCGR nucleic acid for their effect on target expression. Results are expressed as percent of saline control.

**Q.** “148364 (antisense eT*eG*e[5mC]*eA*e[5mC]*dT*dT*dT*dG*dT*dG*dG*dT*dA*d[5mC]*e[5mC]*eA*eA*eG*eG) [compound 148364]” was tested. Which “GCGR mRNA levels” value (0.32 μmol/kg single i.p.) did it give?
**A.** 105% of saline control

**Q.** What about the “GCGR mRNA levels” value (1 μmol/kg single i.p.) of the same substance?
**A.** 106% of saline control

**Q.** What about the “GCGR mRNA levels” value (3.2 μmol/kg single i.p.) of the same substance?
**A.** 73% of saline control

**Q.** What about the “GCGR mRNA levels” value (10 μmol/kg single i.p.) of the same substance?
**A.** 38% of saline control

From patent US8372967B2, “Compounds and methods for modulating expression of GCCR” (Isis Pharmaceuticals, Inc., priority 2006, dated 2013)
